In US5929254A, “1,2-dioxetane derivatives” (Fujirebio Inc., priority 1996, dated 1999):

Columns and labels:
[1] = Chemiluminescence on addition to tetrabutylammonium fluoride in DMSO, measured with a fluorescence analyzer; assay type: physicochemical; details: tetrabutylammonium fluoride 1.5×10^-1 M, 25° C.
Procedure: 1 ml of a […] dimethylsulfoxide(DMSO) solution of 4-(4-acetyl-3-hydroxyphenyl)-3,3-(bicyclo[3.3.1]nonan-3,7-diyl)-4-methoxy- 1,2-dioxethane (Compound [10]) synthesized in Example 2 was added to 2 ml of 1.5×10^-1 M DMSO solution of tetrabutylammonium fluoride at 25° C.
The luminescence at the moment of the addition of the compound [10] to the DMSO solution of tetrabutylammonium fluoride was measured with a fluorescence analyzer.
1 ml of a 2.94×10^-3 M dimethylsulfoxide (DMSO) solution of 3,3-(bicyclo[3.3.1]nonan-3,7-diyl)-4-(3-hydroxyphenyl)-4-methoxy-1,2-dioxetane (Comparative Compound) was added to 2 ml of 1.5×10^-1 M DMSO solution of tetrabutylammonium fluoride at 25° C.
The luminescence at the moment of the addition of the comparative compound to the DMSO solution of tetrabutylammonium fluoride was measured with a fluorescence analyzer in the same manner as in Example 1.

[2] = Chemiluminescence on addition to cesium hydroxide in methanol or aqueous methanol, measured with a fluorescence analyzer; assay type: physicochemical; details: 25° C.
Procedure: 1 ml of a 3.12×10^-3 M methanol solution of 4-(4-acetyl-3-hydroxyphenyl)-3,3-(bicyclo[3.3.1]nonan-3,7-diyl)-4-methoxy- 1,2-dioxethane (Compound [10]) synthesized in Example 2 was added to 2 ml of a 1.5×10^-1 M methanol solution of cesium hydroxide at 25° C.
The luminescence at the moment of the addition of the compound [10] to the methanol solution of cesium hydroxide was measured with a fluorescence analyzer in the same manner as in Test Example 1.
(§1) The measurement of the luminescence of the compound [10] in Test Example 2 was repeated in the same manner as in Test Example 2 except that the methanol used as the solvent for cesium hydroxide employed in Test Example 2 was replaced by an aqueous solution of methanol (water: 50%) without changing the concentration of cesium in the diluted methanol solution.
Thus, the luminescence at the moment of the addition of the compound [10] to the diluted methanol solution of cesium hydroxide was measured with a fluorescence analyzer in the same manner as in Test Example 1.
as §1, with “97%)” for “50%)”
1 ml of a 3.12×10^-3 M methanol solution of 3,3-(bicyclo[3.3.1]nonan-3,7-diyl)-4-(3-hydroxyphenyl)-4-methoxy-1,2-dioxetane (Comparative Compound) was added to 2 ml of a 1.5×10^-1 M methanol solution of cesium hydroxide at 25° C.
It was tried to measure the luminescence at the moment of the addition of the comparative compound to the methanol solution of cesium hydroxide with a fluorescence analyzer in the same manner as in Test Example 1.
(§2) The measurement of he luminescence of the comparative compound in Comparative Test Example 2 was repeated in the same manner as in Comparative Test Example 2 except that the methanol used as the solvent for cesium hydroxide employed in Comparative Test Example 2 was replaced by an aqueous solution of methanol (water: 50%) without changing the concentration of cesium in the diluted methanol solution.
Thus, the luminescence at the moment of the addition of the comparative compound to the diluted methanol solution of cesium hydroxide was measured with a fluorescence analyzer in the same manner as in Test Example 1.
as §2, with “of the” for “of he”, “(water: 97%)” for “(water: 50%)”

[3] = Aqueous solution of methanol (water: 50%), cesium hydroxide
[4] = Aqueous solution of methanol (water: 97%), cesium hydroxide
[5] = methanol solution of cesium hydroxide, in words
[6] = Methanol, cesium hydroxide 1.5×10^-1 M, compound 3.12×10^-3 M

Row | Luminescence Quantum Efficiency [1] | λmax (nm) [1] [nm] | Half-life (sec) of Luminescence [2, 3] [s] | Luminescence Quantum Efficiency [2, 3] | λmax (nm) [2, 3] [nm] | Half-life (sec) of Luminescence [2, 4] [s] | Luminescence Quantum Efficiency [2, 4] | λmax (nm) [2, 4] [nm] | intensity of the luminescence [2, 5] | Half-life (sec) of Luminescence [2, 6] [s] | Luminescence Quantum Efficiency [2, 6] | λmax (nm) [2, 6] [nm] | Structure (SMILES) | Half-life (sec) of Luminescence [1] [s] | half-life of the luminescence [2, 5]
1 | 0.22 | 465 | 452 | 3.9 × 10^-5 | 472 | 173 | 6.7 × 10^-6 | 474 | extremely small |  |  |  | COC1(c2cccc(O)c2)OOC12C1CC3CC(C1)CC2C3 (centres unmarked) [Comparative Compound, 3,3-(bicyclo[3.3.1]nonan-3,7-diyl)-4-(3-hydroxyphenyl)-4-methoxy-1,2-dioxetane, reference compound] | 5.1 | extremely long
2 | 0.13 | 486 | 29000 | 0.023 | 496 | 8200 | 0.0064 | 496 |  | 120000 | 0.030 | 493 | COC1(c2ccc(C(C)=O)c(O)c2)OOC12C1CC3CC(C1)CC2C3 (centres unmarked) [Compound [10], 4-(4-acetyl-3-hydroxyphenyl)-3,3-(bicyclo[3.3.1]nonan-3,7-diyl)-4-methoxy-1,2-dioxethane] | 23000 | 
